One test has as its target T1, PTP1B (Homo sapiens, UniProt P18031).
T1 construct: using the catalytic core of a human recombinant PTP, as an enzyme; made in house
T1 sequence (P18031 3-277 limits assumed): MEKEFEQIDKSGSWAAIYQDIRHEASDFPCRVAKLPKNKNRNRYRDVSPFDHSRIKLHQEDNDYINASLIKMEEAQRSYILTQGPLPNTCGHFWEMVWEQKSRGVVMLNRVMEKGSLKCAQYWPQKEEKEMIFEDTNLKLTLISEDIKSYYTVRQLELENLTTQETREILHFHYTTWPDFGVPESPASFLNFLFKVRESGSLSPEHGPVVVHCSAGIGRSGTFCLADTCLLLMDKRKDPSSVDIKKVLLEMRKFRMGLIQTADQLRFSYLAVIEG
Description: PTP Enzyme Assay (DiFMUP substrate), PTP1B. It is filed as biochemical. Particulars: catalytic core of human recombinant PTP, DiFMUP at Km; read-out: inhibition (IC50) with regard to PTP1B. The source says:
(§1) (1) The PTP Enzyme Assay (In Vitro Assay)
(§2) The PTP Enzyme Assay aims at determining the extent of inhibition of the examined PTP (e.g. PTP1B, TC-PTP, PTP-β, DEP-1, LAR, SHP-1, SHP-2, GLEPP-1, PTP-κ, PTP-μ, VHR, hVH5) in the presence of a test compound. The inhibition is illustrated by IC50 values which denote the concentration necessary to achieve an inhibition of 50% of the given PTP.
(§3) The cloning and expression of the catalytic domain of PTPs (e.g. PTP1B, TC-PTP, PTP-β, DEP-1, LAR, SHP-1, SHP-2, GLEPP-1, PTP-κ, PTP-μ, VHR, hVH5) may be performed as described in J. Biol. Chem. 2000, 275(13), pp 9792-9796.
(§4) Assays were performed in a 96 well plate format, using the catalytic core of a human recombinant PTP, as an enzyme and 6,8-DiFluoro-4-MethylUmbelliferyl Phosphate (DiFMUP, Molecular Probes, D-6567) as a substrate at the Km value which was determined for each enzyme. Compounds to be tested were dissolved in 100% DMSO at a concentration of 2 mM. […] The reaction ran for 30 minutes at room temperature before reading the fluorescence intensity on a Perkin-Elmer Victor 2 spectrofluorimeter (excitation at 355 nm, emission at 460 nm, for 0.1 s). The percentage of inhibition relative to the fluorescence observed in the presence of solvent (5% DMSO) alone was determined. The IC50 values for inhibition were determined in triplicates on at least 3 separate occasions.

A further test addresses T2, GLEPP-1 (Homo sapiens, UniProt Q16827).
T2 construct: using the catalytic core of a human recombinant PTP, as an enzyme; made in house
T2 sequence (Q16827 938-1195 limits assumed): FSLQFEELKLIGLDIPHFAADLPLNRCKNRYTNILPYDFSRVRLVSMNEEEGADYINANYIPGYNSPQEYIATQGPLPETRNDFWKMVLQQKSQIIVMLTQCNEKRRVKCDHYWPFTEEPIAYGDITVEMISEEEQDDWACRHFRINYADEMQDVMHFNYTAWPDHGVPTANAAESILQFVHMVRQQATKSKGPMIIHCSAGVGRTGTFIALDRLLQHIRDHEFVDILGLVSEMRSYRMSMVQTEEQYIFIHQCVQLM
Description: PTP Enzyme Assay (DiFMUP substrate), GLEPP-1. It is filed as biochemical. Particulars: catalytic core of human recombinant PTP, DiFMUP at Km; read-out: inhibition (IC50) with regard to GLEPP-1.
Description: as §1, §2, §3, §4

Broadly, the IC50 is the concentration that inhibits the measured activity by half. Turning to `O=C1NN(c2ccc(I)cc2)C(=O)C1=Cc1ccc(Br)o1` [Compound 25, 4-(5-Bromo-furan-2-ylmethylene)-1-(4-iodo-phenyl)-pyrazolidine-3,5-dione], the IC50 was 40 nM at PTP1B and roughly 130 nM at GLEPP-1.

For the compound `O=C1NN(c2ccc(I)cc2)C(=O)C1=Cc1cc(Br)c(O)c2ncccc12` [Compound 35], at PTP1B, the IC50 came out at 580 nM.

Consider `O=C1NN(c2ccc(I)cc2)C(=O)C1=Cc1ccc([N+](=O)[O-])o1` [Compound 45, 1-(4-Iodo-phenyl)-4-(5-nitro-furan-2-ylmethylene)-pyrazolidine-3,5-dione], for which the IC50 on GLEPP-1 was found to be 47 nM.
